Results taken from patent US20260335299A1, “SUBSTITUTED OXOISOINDOLINYL PIPERIDINE-2,6-DIONE COMPOUND AS ANTICANCER AGENT” (BRISTOL-MYERS SQUIBB COMPANY, priority 2023, published 2026).
Read-outs that look alike come from different tables or passages of the source.

Legend:
IKZF2 Helios = IKZF2 Helios (Homo sapiens, UniProt Q96SW2+Q9UKS7); experiment: Human Regulatory T Cell Reprogramming Assay (Helios); format: cell-based; design: Human CD4+ T cells were isolated from fresh healthy leukopaks; endogenous in cells; host or cells: FACS-sorted primary human regulatory T cells from healthy leukopaks
Chain of IKZF2 Helios (Q9UKS7 whole entry): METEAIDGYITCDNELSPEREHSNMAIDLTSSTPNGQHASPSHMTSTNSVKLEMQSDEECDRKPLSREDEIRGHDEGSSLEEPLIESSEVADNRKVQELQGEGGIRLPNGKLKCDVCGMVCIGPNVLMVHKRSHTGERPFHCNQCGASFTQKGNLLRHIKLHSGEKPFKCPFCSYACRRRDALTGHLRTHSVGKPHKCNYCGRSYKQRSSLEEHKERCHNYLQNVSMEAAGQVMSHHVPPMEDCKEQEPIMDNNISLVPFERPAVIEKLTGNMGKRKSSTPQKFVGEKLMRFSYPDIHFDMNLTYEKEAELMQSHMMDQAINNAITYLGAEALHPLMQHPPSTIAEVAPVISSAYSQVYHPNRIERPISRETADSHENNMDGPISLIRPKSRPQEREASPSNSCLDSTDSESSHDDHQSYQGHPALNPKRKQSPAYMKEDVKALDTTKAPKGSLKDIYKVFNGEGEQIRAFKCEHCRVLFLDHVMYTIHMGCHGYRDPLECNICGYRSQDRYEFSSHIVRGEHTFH
Chain of IKZF2 Helios (Q96SW2 whole entry): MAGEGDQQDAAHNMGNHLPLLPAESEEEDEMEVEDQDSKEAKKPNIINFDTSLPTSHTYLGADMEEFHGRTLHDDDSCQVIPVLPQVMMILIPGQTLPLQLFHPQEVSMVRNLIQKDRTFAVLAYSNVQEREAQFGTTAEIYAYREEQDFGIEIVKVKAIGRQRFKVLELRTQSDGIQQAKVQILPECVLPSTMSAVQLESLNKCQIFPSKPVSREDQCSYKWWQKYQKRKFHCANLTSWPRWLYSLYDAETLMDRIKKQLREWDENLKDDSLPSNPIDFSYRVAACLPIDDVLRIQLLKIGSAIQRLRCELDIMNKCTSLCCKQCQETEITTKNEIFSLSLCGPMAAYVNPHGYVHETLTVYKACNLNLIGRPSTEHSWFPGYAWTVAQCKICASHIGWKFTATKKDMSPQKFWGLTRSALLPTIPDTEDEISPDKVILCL
Chain of IKZF2 Helios (Q16531 whole entry partner): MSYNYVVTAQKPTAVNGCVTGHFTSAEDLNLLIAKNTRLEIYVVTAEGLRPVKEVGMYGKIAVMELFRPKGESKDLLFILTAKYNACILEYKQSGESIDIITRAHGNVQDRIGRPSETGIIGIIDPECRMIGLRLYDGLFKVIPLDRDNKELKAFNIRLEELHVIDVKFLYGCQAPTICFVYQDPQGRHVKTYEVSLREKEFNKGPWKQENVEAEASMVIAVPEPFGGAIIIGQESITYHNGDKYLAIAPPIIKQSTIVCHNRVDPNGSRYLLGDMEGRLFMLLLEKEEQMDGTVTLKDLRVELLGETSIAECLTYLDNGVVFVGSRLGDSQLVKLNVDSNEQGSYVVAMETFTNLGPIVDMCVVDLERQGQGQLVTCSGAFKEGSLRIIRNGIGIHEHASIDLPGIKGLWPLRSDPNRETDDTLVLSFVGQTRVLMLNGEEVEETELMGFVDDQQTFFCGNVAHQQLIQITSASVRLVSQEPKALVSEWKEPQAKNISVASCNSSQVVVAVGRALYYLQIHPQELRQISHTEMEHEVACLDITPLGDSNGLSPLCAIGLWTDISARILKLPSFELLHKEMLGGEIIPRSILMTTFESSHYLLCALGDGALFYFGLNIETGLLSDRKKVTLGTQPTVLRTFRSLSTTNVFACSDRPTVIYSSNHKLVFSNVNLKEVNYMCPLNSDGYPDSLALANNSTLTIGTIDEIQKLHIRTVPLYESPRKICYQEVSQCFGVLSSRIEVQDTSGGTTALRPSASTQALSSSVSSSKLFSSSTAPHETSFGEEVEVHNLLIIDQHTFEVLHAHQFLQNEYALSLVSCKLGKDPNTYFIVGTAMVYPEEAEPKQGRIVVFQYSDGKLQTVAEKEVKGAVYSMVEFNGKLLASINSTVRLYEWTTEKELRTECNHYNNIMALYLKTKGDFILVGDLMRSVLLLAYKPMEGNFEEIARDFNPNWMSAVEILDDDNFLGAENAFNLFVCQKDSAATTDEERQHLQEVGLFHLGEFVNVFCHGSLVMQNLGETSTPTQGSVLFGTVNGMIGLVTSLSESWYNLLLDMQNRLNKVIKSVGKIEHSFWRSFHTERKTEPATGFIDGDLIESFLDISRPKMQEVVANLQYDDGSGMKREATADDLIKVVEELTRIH
Method: Human CD4+ T cells were isolated from fresh healthy leukopaks (Stemcell Technologies) using the RosetteSep Human CD4+ T cell enrichment cocktail (Stemcell Technologies) and Ficoll density gradient centrifugation. Leukopaks were diluted with an equal volume of phosphate-buffered saline (PBS [Gibco]) supplemented with 2% fetal bovine serum (FBS, VWR Lifescience) and incubated with RosetteSep Human CD4^+ T cell enrichment cocktail for 20 minutes before layering on Ficoll-Paque Plus solution (GE Health Care). The cell-rich interface layer was harvested and washed twice with PBS supplemented with 2% FBS. Regulatory T cells were then isolated manually using the EasySep Human CD4^+CD1271WCD25^+ Regulatory T cell isolation kit (Stemcell Technologies) according to the manufacturer's instructions. Cells were rested overnight in Roswell Park Memorial Institute (RPMI) 1640 media (Gibco) supplemented with 10% FBS, Pen/Strep (Gibco), MEM-NEAA (Gibco), and sodium pyruvate (Gibco) in a humidified incubator (37° C., 5% CO2). Cells were then stained for CD4 (clone: RPA-T4, Biolegend), CD25 (clone: 2A3, BD Biosciences), and CD127 (clone: hIL-7R-M21, BD Biosciences). CD4+CD12710WCD25+ cells were sorted on a BD FACS Aria Fusion sorter to a purity of 95% or greater. Sorted cells were immediately used or cryopreserved for downstream assays.
Fresh or cryopreserved FACS-sorted CD4+CD127^lowCD25^+ Treg cells were cultured at 25,000-50,000 cells/well of 96-well round bottom plates in RPMI 1640 media (Gibco) supplemented with 10% FBS, Pen/Strep (Gibco), MEM-NEAA (Gibco), and sodium pyruvate (Gibco). Cells were stimulated with Treg Xpander beads (Thermo Fisher) at cells-to-beads ratio of 1:4 in the presence of 500 U/mL recombinant human IL-2 (Proleukin). Compounds were added at titrated doses and cells were incubated at 37° C., 5% CO2 for 12-13 days. Recombinant human IL-2 and compound were replenished every 2-3 days during the entire culture duration. On day 12 or 13, cells were restimulated with phorbol 12-myristate 13-acetate (PMA) and ionomycin in the presence of the protein transport inhibitors brefeldin A and monensin (eBioscience Cell Stimulation Cocktail plus protein transport inhibitors, 500×, Catalog number 00-4975-93) before proceeding with flow cytometry staining and analysis.
For flow cytometry staining, cells were washed twice with flow cytometry staining buffer (Thermo Fisher) and incubated in Human Tru-stain Fc block (Biolegend) for 10 minutes before adding eFluor780 viability dye (Thermo Fisher) and surface marker antibody cocktail for 30 minutes at 4° C. […] Data were analyzed using FlowJo version 10 and GraphPad Prism Software.
Table C-1 lists the maximum observed degradation of the IKZF2 protein and IKZF4 protein as measured in the Human Regulatory T Cell Reprogramming assay. […]

IKZF1 Ikaros = IKZF1 Ikaros (Homo sapiens, UniProt Q13422+Q96SW2); experiment: Human CD8+ T Cell Reprogramming (Degradation) Assay (Ikaros); format: cell-based; design: Cryopreserved healthy donor human peripheral blood mononuclear cells (PBMC); endogenous in cells; host or cells: CD8+ T cells within healthy donor human PBMC; conditions: CD8+ T cells, human PBMC, 24 h
Chain of IKZF1 Ikaros (Q13422 whole entry): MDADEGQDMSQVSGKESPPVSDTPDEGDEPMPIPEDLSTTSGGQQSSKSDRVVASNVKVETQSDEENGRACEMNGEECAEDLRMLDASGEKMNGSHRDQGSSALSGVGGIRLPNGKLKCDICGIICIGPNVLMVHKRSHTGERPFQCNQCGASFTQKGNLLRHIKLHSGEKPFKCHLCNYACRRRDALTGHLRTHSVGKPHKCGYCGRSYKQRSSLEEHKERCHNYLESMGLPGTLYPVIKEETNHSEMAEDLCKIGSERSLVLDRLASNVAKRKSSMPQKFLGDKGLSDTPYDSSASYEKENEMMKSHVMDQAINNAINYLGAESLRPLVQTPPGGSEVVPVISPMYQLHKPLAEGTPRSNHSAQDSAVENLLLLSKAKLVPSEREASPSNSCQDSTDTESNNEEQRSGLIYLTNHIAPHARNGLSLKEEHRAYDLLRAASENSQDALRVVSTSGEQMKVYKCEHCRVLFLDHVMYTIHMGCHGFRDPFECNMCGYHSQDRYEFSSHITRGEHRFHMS
Chain of IKZF1 Ikaros (Q96SW2 whole entry): as the sequence (Q96SW2 whole entry) above
Chain of IKZF1 Ikaros (Q16531 whole entry partner): as the sequence (Q16531 whole entry partner) above
Method: Cryopreserved healthy donor human peripheral blood mononuclear cells (PBMC) from healthy donors were thawed and seeded at 500,000 cells/well of 96-well round bottom plates in RPMI 1640 media (Gibco) supplemented with 10% FBS, Pen/Strep (Gibco), MEM-NEAA (Gibco), and sodium pyruvate (Gibco). Cells were treated with titrated doses of compound for 24 hours at 37° C., 5% CO2 before analyzing by flow cytometry.
For flow cytometry staining, cells were washed twice with flow cytometry staining buffer (Thermo Fisher) and incubated in Human Tru-stain Fc block (Biolegend) for 10 minutes before adding eFluor780 viability dye (Thermo Fisher) and surface marker antibody cocktail containing LD-eFluor780, CD3-BUV-395, CD4-BUV805, CD8-FITC, and CD25-BV605 for 30 minutes at 4° C. Cells were then fixed and permeabilized by incubation with permeabilization buffer (eBioscience FoxP3 buffer set 00-5523-00) for 30 minutes at 4° C. as per the kit manufacturer's instructions. Cells were washed twice with the Perm/Wash buffer supplied in the kit as per the manufacturer's instructions and incubated overnight at 4° C. with an intracellular antibody cocktail comprised of antibodies specific for the transcription factors (i.e., Foxp3-BV421, HELIOS-PE-Cy7, EOS-PE, IKAROS-PECF594, AIOLOS-AF647). Cells were washed twice with Perm/Wash buffer and resuspended in flow cytometry staining buffer (Thermo Fisher) prior to acquisition. Sample acquisition and analysis was performed using a BD LSRFortessa (BD Biosciences) flow cytometer. Single-stain controls for each fluorochrome were prepared using UltraComp eBead Compensation Beads (Thermo Fisher). Data were analyzed using FlowJo version 10 and GraphPad Prism Software.
Table D-1 lists the maximum observed degradation of the IKZF1 protein and IKZF3 protein as measured in the Human CD8^+ T Cell Reprogramming assay. The results in Table D-1 were rounded to two digits. In the Human CD8^+ T Cell Reprogramming assay, a value of 100% indicated no detectable protein remaining or complete degradation of the protein; and a value of 0% indicated no detectable degradation of the protein by the test compound.

Dmax (IKZF2 Helios; Regulatory T cell, human, text summary of Table C-1, read-out: decreased the level of the IKZF2 (Helios) protein): ≥ 81%
Dmax (IKZF2 Helios; Regulatory T cell, human Treg cells, stimulated, 12-13 days, read-out: IKZF2 Helios Maximum Observed Degradation): 81 to 86%
DC50 (IKZF2 Helios; human Treg cells, stimulated, 12-13 days, concentration reducing protein level by 50% compared to DMSO alone): 0.036 to 0.172 µM
Dmax (IKZF2 Helios; summary table, Human T Regulatory Cell Reprogramming Assay (Table C-1), read-out: IKZF2 Helios max % deg. observed (Table E)): 81 to 86%
DC50 (IKZF1 Ikaros; concentration reducing protein level by 50% compared to DMSO alone): 0.035 to 0.044 µM
Dmax (IKZF1 Ikaros; read-out: IKZF1 Ikaros Maximum Observed Degradation): 86%
SMILES: Nc1nc(-c2ccc3c(c2F)CN(C2CCC(=O)NC2=O)C3=O)ccc1CN1CC(C2CCC(F)(F)CC2)C1 (stereo not drawn) [Example 1, 3-(5-(6-Amino-5-((3-(4,4-difluorocyclohexyl)azetidin-1-yl)methyl)pyridin-2-yl)-4-fluoro-1-oxoisoindolin-2-yl) piperidine-2,6-dione]
